The assay deals with T1, human D3 dopamine receptors (Homo sapiens, UniProt P35462).
T1 construct: expressed in transfected cells; host or cells: CHO cells (crude cell membranes)
As to the kind of experiment: biochemical. The format is binding. The following applies: human D3 receptor; CHO cell membranes, 0.1 nM [125I] iodosulpride, 30 min at 37°C. As to the method: Cultures were grown as monolayers or in suspension in standard cell culture media. Cells were recovered by scraping (from monolayers) or by centrifugation (from suspension cultures), and were washed two or three times by suspension in phosphate buffered saline followed by collection by centrifugation. Cell pellets were stored frozen at -40°C. Crude cell membranes were prepared by homogenisation followed by high-speed centrifugation, and characterisation of cloned receptors achieved by radioligand binding.
Cell pellets were gently thawed at room temperature, and resuspended in about 20 volumes of ice-cold 50 mM Tris salts (pH 7.4 @ 37°C), 20mM EDTA, 0.2 M sucrose. The suspension was homogenised using an Ultra-Turrax (TM) at full speed for 15 sec. The homogenate was centrifuged at 18,000 r.p.m for 20 min at 4°C in a Sorvall RC5C centrifuge. The membrane pellet was resuspended in ice-cold 50 mM Tris salts (pH 7.4 @ 37°C), using an Ultra-Turrax (TM), and recentrifuged at 18,000 r.p.m for 15 min at 4°C in a Sorvall RC5C. The membranes were washed two more times with ice-cold 50 mM Tris salts (pH 7.4 @ 37°C). The final pellet was resuspended in 50 mM Tris salts (pH 7.4 @ 37°C), and the protein content determined using bovine serum albumin as a standard (Bradford, M. M. (1976) Anal. Biochem. 72, 248-254).
Crude cell membranes were incubated with 0.1 nM [^125I] iodosulpride (∼2000 Ci/mmol; Amersham, U. K.), and the test compound in a buffer containing 50 mM Tris salts (pH 7.4 @ 37°C), 120 mM NaCl, 5 mM KCl, 2 mM CaCl2, 1 mM MgCl2, 0.1% (w/v) bovine serum albumin, in a total volume of 1 ml for 30 min at 37°C. Following incubation with the test compound, samples were filtered using a Brandel Cell Harvester (TM), and washed three times with ice-cold 50 mM Tris salts (pH 7.4 @ 37°C), 120 mM NaCl, 5 mM KCl, 2 mM CaCl2, 1 mM MgCl2. The radioactivity on the filters was measured using a Cobra (TM) gamma counter (Canberra Packard). Non-specific binding was defined as the radioligand binding remaining after incubation in the presence of 100 µM iodosulpride. For competition curves, 14 concentrations (half-log dilutions) of competing cold drug were used.
Competition curves were analysed simultaneously whenever possible using non-linear least-squares fitting procedures, capable of fitting one, two or three site models.

Usually IC50 stands for the concentration needed to halve the response being measured. Read a low IC50 as greater potency.

Where a name gives a salt, the structure may show the parent alone.

T1 sequence (P35462 whole entry): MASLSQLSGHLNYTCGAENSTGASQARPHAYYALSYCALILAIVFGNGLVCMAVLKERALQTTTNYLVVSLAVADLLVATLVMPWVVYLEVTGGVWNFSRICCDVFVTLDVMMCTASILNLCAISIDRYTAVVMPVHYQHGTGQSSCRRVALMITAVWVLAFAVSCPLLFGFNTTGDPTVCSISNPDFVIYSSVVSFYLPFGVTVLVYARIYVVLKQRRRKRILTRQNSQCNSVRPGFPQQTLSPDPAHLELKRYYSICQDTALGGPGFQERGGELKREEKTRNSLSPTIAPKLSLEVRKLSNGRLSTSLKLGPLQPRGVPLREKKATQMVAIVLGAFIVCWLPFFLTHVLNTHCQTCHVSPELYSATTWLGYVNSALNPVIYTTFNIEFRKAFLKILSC

`CCS(=O)(=O)c1ccc(OC)c(-c2ccc(CN3CCCCC[C@@H]3c3ccccc3)[nH]2)c1` [Example 10, 2-(5-Ethylsulphonyl-2-methoxyphenyl)-5-(1-(2-(R)-phenylazacycloheptyl)methyl)-1H-pyrrole, oxalate] registered an IC50 of 1 to 50 nM.
The value for `CCS(=O)(=O)c1ccc(OC)c(-c2ccc(CN3CCCCCC3c3ccccc3)[nH]2)c1` (racemic) [Example 3, 2-(5-Ethylsulphonyl-2-methoxyphenyl)-5-(1-(2-(R,S)-phenylazacycloheptyl)-methyl)-1H-pyrrole, hydrochloride] was 1 to 50 nM; that for `CCS(=O)(=O)c1ccc(OC)c(-c2ccc(CN3CCCCC[C@H]3c3ccccc3)[nH]2)c1` [Example 11, 2-(5-Ethylsulphonyl-2-methoxyphenyl)-5-(1-(2-(S)-phenylazacycloheptyl)methyl)-1H-pyrrole, oxalate] was 1 to 50 nM; that for `CCS(=O)(=O)c1cc(Br)c(OC)c(-c2ccc(CN3CCCCCC3c3ccccc3)[nH]2)c1` (racemic) [Example 6, 2-(3-Bromo-5-ethylsulphonyl-2-methoxyphenyl)-5-(1-(2-(R,S)-phenylazacycloheptyl)methyl)-1H-pyrrole, hydrochloride] was 1 to 50 nM.
As for `COc1ccc(S(=O)(=O)N2CCOCC2)cc1-c1ccc(CN2CCCCC[C@@H]2c2ccccc2)[nH]1` [Example 13, 2-(2-Methoxy-5-(4-morpholinyl)sulphonylphenyl)-5-(1-(2-(R)-phenylazacycloheptyl)methyl)-1H-pyrrole, oxalate], the figure is 1 to 50 nM.
